Results on two molecules are retold here after US20260102415A1, “COMPOSITIONS COMPRISING PRODRUGS OF HYDROXAMATE-BASED COMPOUNDS AND METHODS OF MAKING AND USING SAME” (Duke University, priority 2022, published 2026).

In general, solubility refers to the concentration that dissolves in the medium under given conditions.

Series [1] is described as follows: Maximum solubility in 5% Captisol by UV-Vis spectroscopy. As to conditions: aqueous with cosolvent or surfactant or cyclodextrin, thermodynamic from solid, absorption at 290 nm, triplicate, averaged. The format is physicochemical. As for the experimental part: Maximum solubility of LPC233-phosphate-ProDrug was determined using UV-Vis spectroscopy. First, a sample of LPC-233-Phos-Pro in 5% Captisol was prepared at 1 mg/mL by dissolving 0.7 mg of compound in 700 μL of 5% Captisol and sonicating for 30 minutes. The sample was then serial diluted 2-fold to generate standard solutions ranging from 0.0625-1 mg/mL. The absorption of each sample at 290 nm was determined via nanodrop, and the values were plotted to generate a linear standard curve of y=3.0336x+0.09 with r^2=0.998 (v=Abs290 nm, x=[drug]mg/mL). Next, a sample of LPC-233-Phos-Pro was prepared based on an assumed concentration of 300 mg/mL in 5% Captisol and allowed to sonicate for 45 minutes. The sample was then vortexed and centrifuged to pellet any undissolved compound. The supernatant was removed and diluted an initial 30× to a theoretical max concentration of 10 mg/mL. From here, the solution was serial diluted 2-fold up to 256×. The absorption of each dilution at 290 nm was measured via nanodrop and values were plotted to the standard curve. These preparations and measurements were performed in triplicate and averaged. The final maximum solubility of LPC-233-Phos-Pro in 5% Captisol was determined to be ˜260±6 mg/mL. […]

A short description of series [2]: Vehicle (Captisol or beta-cyclodextrin) concentration needed to formulate the 100 mg/kg dose. Type of series: physicochemical. Conditions: dose level 100 mg/kg. As for the experimental part:
LPC-233 required 30-40% Captisol or beta-cyclodextrin to reach the dose level of 100 mg/kg and beyond. These concentrations of vehicle caused vehicle-related side effects and cannot be used in clinical formulations.

For series [3], the system named is Acinetobacter baumannii (ATCC 19606). Put plainly: Acinetobacter baumannii sepsis model in mice (survival). Type of series: in vivo. Conditions: CD-1 mice; for overall survival: separate experiment comparing prodrug with parent compound; for mice surviving during treatment and post-treatment observation periods: dose response study. As for the experimental part: A mice model was created to test the efficacy of LPC-233-Phos-Pro in an Acinetobacter baumannii sepsis model.
Method: Overnight culture of A. baumannii 19606 was inoculated into 50 mL fresh LB with 1:100 dilution. The culture was incubated at 37° C. with vigorous shaking until OD600 reached ˜0.5. The bacteria were harvested, washed, and re-suspended in PBS pH 7.4 buffer. Each CD-1 mouse at the age of 6-7 weeks was injected with about […] Acinetobacter baumannii (ATCC 19606) in a volume of 200 μL intraperitoneally. There were ten mice in each group (five male and five female). About 2 hours post infection, 200 μL of vehicle (5% Captisol dissolved in saline), or LPC-233-Phos-Pro in 5% Captisol at specified concentrations were injected intraperitoneally. 12 hours later, 200 μL of vehicle control or LPC-233-Phos-Pro solutions at desired concentrations were administrated via intraperitoneal injections every 12 hours (Q12H) for a total of ten IP injections. The mice were monitored for an additional 10 days and the percentages of survival were recorded. The same procedure was used in a separate experiment to compare the efficacy of LPC-233 and LPC-233-Phos-Pro.

Series [4] can be described thus: Maximum Tolerated 5-day Repeat dose in male CD-1 mice. The format is in vivo. As to conditions: 250 mg/kg/Q12H (500 mg/kg/day) IP over 5 days, 5% Captisol. As for the experimental part: Additionally, the Maximum Tolerated 5-day Repeat dose of LPC-233-Phos-Pro was tested in male CD-1 mice (n=3). LPC-233-Phos-Pro was prepared in 5% Captisol and 200 μL of solution was administered via IP injection every 12 hours (Q12H) at doses of 250 mg/kg/Q12H (500 mg/kg/day) over the course of 5 days. The mice were weighed daily to monitor animal survival and weight loss.

The structures appear in SMILES notation. ≈ marks a conversion by molar mass, not a printed value.

In turn, `C[C@@](O)(C(F)F)[C@H](NC(=O)c1ccc(C#CC#CC2CC2)cc1)C(=O)NO` [LPC-233, reference compound] registered a solubility at 45 min in series [1] of about 20 mg/mL (≈ 53.1 mM). In addition, the “Captisol or beta-cyclodextrin concentration required to reach the dose level of 100 mg/kg” value in series [2] is listed as 30-40%. The overall survival in series [3] (100 mg/kg Q12H IP) was 70%.
With `C[C@@](O)(C(F)F)[C@H](NC(=O)c1ccc(C#CC#CC2CC2)cc1)C(=O)NOP(=O)([O-])[O-].[Na+].[Na+]` [LPC-233-Phos-Pro], in series [1], the solubility at 45 min was about 260 mg/mL. In series [4], the animal survival entry is given as “All mice survived” and the weight loss is recorded as < 10 % of initial body weight. For the same molecule, the “Captisol or beta-cyclodextrin concentration required to reach the dose level of 100 mg/kg” value in series [2] is given as 5%. Also, in series [3] (30 mg/kg Q12H IP), the “mice surviving during treatment and post-treatment observation periods” value came to 90%. Besides, in series [3] (100 mg/kg Q12H IP), the “mice surviving during treatment and post-treatment observation periods” value is “all mice”; the overall survival came to 100%. Moreover, the “fitted ED50 (survival)” value in series [3] (IP infection with A. baumannii 19606, IP dosing Q12H, ten injections, in 5% Captisol, dose response study 10, 30, 100 mg/kg) worked out at 5.5 mg/kg Q12H.
